In the OligoGym collection one finds target mRNA knockdown data, which are given here for 19 substances.

HELM strings list units from the 5' end as sugar, base in round brackets, then linkage (d deoxyribose, r ribose, m 2'-O-methyl, p phosphodiester). Strings are as the collection lists them, not checked against the first reports. ss, as = sense and antisense strand; [lna] = locked nucleic acid (LNA); [una] = unlocked nucleic acid; [s4r] = 4'-thioribose; [fl2r] = 2'-fluoro
Also: test system not given here.

The conditions of this data set: siRNA.
As for “RNA1{r(G)p.r(G)p.r(A)p.r(C)p.r(A)p.r(U)p.r(U)p.r(C)p.r(A)p.r(G)p.r(A)p.r(A)p.r(C)p.r(A)p.r(A)p.r(G)p.r(A)p.r(A)p.r(A)p.[una](U)p.[una](U)}|RNA2{r(U)p.r(U)p.r(U)p.r(C)p.[una](U)p.r(U)p.r(G)p.r(U)p.r(U)p.r(C)p.r(U)p.r(G)p.r(A)p.r(A)p.r(U)p.r(G)p.r(U)p.r(C)p.r(C)p.[una](U)p.[una](U)}$$$RNA1{StrandType:ss}|RNA2{StrandType:as}$”, the target mRNA knockdown is 37%.
The substance “RNA1{m(G)p.r(C)p.m(A)p.m(G)p.m(A)p.m(G)p.m(A)p.m(A)p.r(U)p.r(C)p.r(U)p.m(A)p.r(C)p.r(C)p.r(U)p.r(U)p.r(U)p.r(C)p.r(C)p.r(T)p.r(T)}|RNA2{r(G)p.r(G)p.r(A)p.r(A)p.r(A)p.r(G)p.r(G)p.r(U)p.r(A)p.r(G)p.r(A)p.r(U)p.r(U)p.r(C)p.r(U)p.r(C)p.r(U)p.r(G)p.r(C)p.r(T)p.r(T)}$$$RNA1{StrandType:ss}|RNA2{StrandType:as}$” yielded a target mRNA knockdown of 65%.
“RNA1{r(C)p.[fl2r](C)p.r(A)p.r(G)p.r(C)p.r(G)p.r(A)p.r(G)p.r(C)p.r(C)p.[fl2r](C)p.r(A)p.r(A)p.r(A)p.r(A)p.r(G)p.r(A)p.r(A)p.r(A)p.r(T)p.r(T)}|RNA2{r(U)p.r(U)p.r(U)p.r(C)p.r(U)p.r(U)p.r(U)p.r(U)p.r(G)p.r(G)p.r(G)p.r(C)p.r(U)p.r(C)p.r(G)p.r(C)p.r(U)p.r(G)p.r(G)p.r(T)p.r(T)}$$$RNA1{StrandType:ss}|RNA2{StrandType:as}$” had a target mRNA knockdown of 85%.
The substance “RNA1{r(U)p.m(U)p.r(A)p.r(C)p.r(A)p.r(A)p.r(A)p.r(G)p.r(G)p.r(A)p.r(U)p.r(C)p.r(U)p.r(C)p.r(C)p.r(U)p.r(C)p.r(C)p.r(C)p.r(T)p.r(T)}|RNA2{r(G)p.r(G)p.r(G)p.r(A)p.r(G)p.r(G)p.r(A)p.r(G)p.r(A)p.r(U)p.r(C)p.r(C)p.r(U)p.r(U)p.r(U)p.r(G)p.m(U)p.r(A)p.r(A)p.r(T)p.r(T)}$$$RNA1{StrandType:ss}|RNA2{StrandType:as}$” yielded a target mRNA knockdown of 69%.
With “RNA1{r(C)p.r(G)p.r(U)p.r(A)p.r(C)p.r(G)p.r(C)p.r(G)p.r(G)p.r(A)p.r(A)p.r(U)p.r(A)p.r(C)p.r(U)p.r(U)p.r(C)p.r(G)p.r(A)p.r(T)p.r(T)}|RNA2{[s4r](U)p.[s4r](C)p.[s4r](G)p.[s4r](A)p.[s4r](A)p.[s4r](G)p.r(U)p.r(A)p.r(U)p.r(U)p.r(C)p.r(C)p.r(G)p.r(C)p.r(G)p.r(U)p.r(A)p.r(C)p.r(G)p.r(T)p.r(T)}$$$RNA1{StrandType:ss}|RNA2{StrandType:as}$”, the target mRNA knockdown was determined as 70.9%.
As for “RNA1{r(G)p.r(G)p.r(G)p.r(G)p.r(C)p.r(U)p.r(C)p.r(U)p.r(U)p.r(C)p.m(U)p.r(A)p.r(C)p.r(A)p.m(U)p.r(U)p.r(C)p.r(C)p.r(C)p.r(T)p.r(T)}|RNA2{r(G)p.r(G)p.r(G)p.r(A)p.r(A)p.m(U)p.r(G)p.m(U)p.r(A)p.r(G)p.r(A)p.r(A)p.r(G)p.r(A)p.r(G)p.r(C)p.r(C)p.r(C)p.r(C)p.r(T)p.r(T)}$$$RNA1{StrandType:ss}|RNA2{StrandType:as}$”, the target mRNA knockdown stood at 68%.
“RNA1{r(C)p.r(U)p.r(U)p.r(A)p.r(C)p.r(G)p.r(C)p.r(U)p.r(G)p.r(A)p.r(G)p.r(U)p.r(A)p.r(C)p.r(U)p.r(U)p.r(C)p.r(G)p.r(A)p.r(T)p.r(T)}|RNA2{r(T)p.r(C)p.[lna](G)p.r(A)p.r(A)p.r(G)p.r(U)p.r(A)p.r(C)p.r(U)p.r(C)p.r(A)p.r(G)p.r(C)p.r(G)p.r(U)p.r(A)p.r(A)p.r(G)p.[lna](T)p.[lna](T)}$$$RNA1{StrandType:ss}|RNA2{StrandType:as}$” yielded a target mRNA knockdown of 90%.
The value for “RNA1{[fl2r](G)p.r(C)p.[fl2r](U)p.r(A)p.[fl2r](C)p.r(C)p.[fl2r](G)p.r(C)p.[fl2r](A)p.r(A)p.[fl2r](C)p.r(C)p.[fl2r](A)p.r(C)p.[fl2r](G)p.r(A)p.[fl2r](G)p.r(C)p.[fl2r](U)p.r(T)p.r(T)}|RNA2{r(A)p.r(G)p.r(C)p.r(U)p.r(C)p.r(G)p.r(U)p.r(G)p.r(G)p.r(U)p.r(U)p.r(G)p.r(C)p.r(G)p.r(G)p.r(U)p.r(A)p.r(G)p.r(C)p.r(T)p.r(T)}$$$RNA1{StrandType:ss}|RNA2{StrandType:as}$” was 21%; that for “RNA1{[fl2r](G)p.m(A)p.[fl2r](C)p.m(G)p.[fl2r](U)p.m(A)p.[fl2r](A)p.m(A)p.[fl2r](C)p.m(G)p.[fl2r](G)p.m(C)p.[fl2r](C)p.m(A)p.[fl2r](C)p.m(A)p.[fl2r](A)p.m(G)p.[fl2r](U)p.m(U)p.[fl2r](C)}|RNA2{[fl2r](A)p.m(C)p.[fl2r](U)p.m(U)p.[fl2r](G)p.m(U)p.[fl2r](G)p.m(G)p.[fl2r](C)p.m(C)p.[fl2r](G)p.m(U)p.[fl2r](U)p.m(U)p.[fl2r](A)p.m(C)p.[fl2r](G)p.m(U)p.[fl2r](C)p.m(G)p.[fl2r](C)}$$$RNA1{StrandType:ss}|RNA2{StrandType:as}$” was 23.8%; that for “RNA1{r(G)p.r(C)p.r(C)p.r(U)p.[fl2r](C)p.r(U)p.r(C)p.[fl2r](U)p.r(A)p.r(U)p.r(C)p.r(C)p.r(U)p.[fl2r](U)p.r(A)p.r(G)p.r(C)p.r(U)p.r(U)p.r(T)p.r(T)}|RNA2{r(A)p.r(A)p.r(G)p.r(C)p.[fl2r](U)p.r(A)p.r(A)p.r(G)p.r(G)p.r(A)p.[fl2r](U)p.r(A)p.r(G)p.r(A)p.r(G)p.r(A)p.r(G)p.r(G)p.r(C)p.r(T)p.r(T)}$$$RNA1{StrandType:ss}|RNA2{StrandType:as}$” was 47%.
Take “RNA1{r(A)p.r(U)p.r(C)p.r(U)p.r(G)p.r(A)p.r(A)p.r(G)p.r(A)p.r(A)p.r(G)p.r(G)p.r(A)p.r(G)p.r(A)p.r(A)p.r(A)p.r(A)p.r(A)p.r(T)p.r(T)}|RNA2{r(U)p.r(U)p.r(U)p.r(U)p.r(U)p.r(C)p.r(U)p.r(C)p.r(C)p.r(U)p.r(U)p.r(C)p.r(U)p.r(U)p.r(C)p.r(A)p.r(G)p.r(A)p.r(U)p.[lna](T)p.[lna](T)}$$$RNA1{StrandType:ss}|RNA2{StrandType:as}$”: the target mRNA knockdown came to 90%.
“RNA1{r(U)p.r(G)p.r(A)p.r(G)p.r(A)p.r(G)p.r(A)p.r(A)p.r(A)p.r(G)p.r(C)p.r(A)p.r(C)p.r(A)p.r(G)p.r(A)p.r(A)p.r(A)p.r(A)p.r(T)p.r(T)}|RNA2{[lna](T)p.r(U)p.r(U)p.r(U)p.r(C)p.r(U)p.r(G)p.r(U)p.r(G)p.r(C)p.r(U)p.r(U)p.r(U)p.r(C)p.r(U)p.r(C)p.r(U)p.r(C)p.r(A)p.[lna](T)p.[lna](T)}$$$RNA1{StrandType:ss}|RNA2{StrandType:as}$” displayed a target mRNA knockdown of 45%.
“RNA1{m(U)p.r(A)p.r(A)p.r(A)p.r(C)p.r(U)p.r(U)p.r(U)p.r(G)p.r(G)p.r(G)p.r(G)p.r(A)p.r(A)p.r(G)p.r(G)p.r(G)p.r(A)p.r(G)p.r(T)p.r(T)}|RNA2{r(C)p.r(U)p.r(C)p.m(C)p.r(C)p.r(U)p.r(U)p.r(C)p.r(C)p.r(C)p.r(C)p.r(A)p.r(A)p.r(A)p.r(G)p.r(U)p.r(U)p.r(U)p.r(A)p.r(T)p.r(T)}$$$RNA1{StrandType:ss}|RNA2{StrandType:as}$” displayed a target mRNA knockdown of 72%.
For “RNA1{[fl2r](A)p.r(G)p.[fl2r](U)p.r(U)p.[fl2r](U)p.r(C)p.[fl2r](U)p.r(A)p.[fl2r](G)p.r(G)p.[fl2r](G)p.[fl2r](C)p.r(C)p.[fl2r](G)p.r(U)p.r(G)p.[fl2r](G)p.r(C)p.r(C)p.r(T)p.r(T)}|RNA2{r(G)p.r(G)p.r(C)p.r(C)p.r(A)p.r(C)p.r(G)p.r(G)p.r(C)p.r(C)p.r(C)p.r(U)p.r(A)p.r(G)p.r(A)p.r(A)p.r(A)p.r(C)p.r(U)p.r(T)p.r(T)}$$$RNA1{StrandType:ss}|RNA2{StrandType:as}$”, the target mRNA knockdown is 75%.
As for “RNA1{r(A)p.r(U)p.r(C)p.m(U)p.r(A)p.r(C)p.r(C)p.m(C)p.r(A)p.r(G)p.r(C)p.r(U)p.r(C)p.m(U)p.r(C)p.r(C)p.r(C)p.r(U)p.r(U)p.r(T)p.r(T)}|RNA2{r(A)p.r(A)p.r(G)p.r(G)p.r(G)p.r(A)p.r(G)p.r(A)p.r(G)p.r(C)p.m(U)p.r(G)p.r(G)p.r(G)p.m(U)p.r(A)p.r(G)p.r(A)p.r(U)p.r(T)p.r(T)}$$$RNA1{StrandType:ss}|RNA2{StrandType:as}$”, the target mRNA knockdown was 75%.
Regarding “RNA1{r(U)p.r(U)p.m(U)p.r(G)p.r(A)p.r(U)p.m(C)p.r(A)p.r(G)p.r(C)p.r(G)p.r(G)p.r(A)p.r(G)p.r(A)p.r(C)p.r(U)p.r(C)p.r(G)p.r(T)p.r(T)}|RNA2{r(C)p.r(G)p.r(A)p.r(G)p.r(U)p.r(C)p.r(U)p.r(C)p.r(C)p.r(G)p.r(C)p.m(U)p.r(G)p.r(A)p.r(U)p.m(C)p.r(A)p.r(A)p.r(A)p.r(T)p.r(T)}$$$RNA1{StrandType:ss}|RNA2{StrandType:as}$”, the target mRNA knockdown stood at 89%.
As to “RNA1{r(G)p.r(A)p.r(G)p.r(A)p.r(G)p.r(A)p.r(G)p.r(A)p.r(C)p.r(G)p.r(G)p.r(U)p.r(G)p.r(G)p.r(A)p.r(A)p.r(G)p.r(A)p.r(A)p.r(T)p.r(T)}|RNA2{r(U)p.r(U)p.r(C)p.r(U)p.r(U)p.r(C)p.r(C)p.m(A)p.r(C)p.r(C)p.r(G)p.r(U)p.r(C)p.r(U)p.r(C)p.r(U)p.r(C)p.r(U)p.r(C)p.r(T)p.r(T)}$$$RNA1{StrandType:ss}|RNA2{StrandType:as}$”, the target mRNA knockdown came to 74%.
Substance “RNA1{r(A)p.r(G)p.r(A)p.r(G)p.r(A)p.r(G)p.r(G)p.[fl2r](U)p.r(G)p.r(G)p.r(A)p.r(G)p.r(G)p.[fl2r](U)p.r(A)p.r(U)p.r(C)p.[fl2r](U)p.r(C)p.r(T)p.r(T)}|RNA2{r(G)p.r(A)p.r(G)p.r(A)p.[fl2r](U)p.r(A)p.r(C)p.r(C)p.r(U)p.r(C)p.[fl2r](C)p.[fl2r](A)p.r(C)p.r(C)p.r(U)p.r(C)p.r(U)p.r(C)p.r(U)p.r(T)p.r(T)}$$$RNA1{StrandType:ss}|RNA2{StrandType:as}$” returned a target mRNA knockdown of 85%.
Turning to “RNA1{m(G)p.r(A)p.m(A)p.r(G)p.m(A)p.r(G)p.m(C)p.r(C)p.m(U)p.r(A)p.m(C)p.r(A)p.m(C)p.r(A)p.m(A)p.r(C)p.m(C)p.r(C)p.m(U)p.r(T)p.r(T)}|RNA2{r(A)p.m(G)p.m(G)p.m(G)p.r(U)p.r(U)p.m(G)p.r(U)p.m(G)p.r(U)p.r(A)p.m(G)p.m(G)p.r(C)p.r(U)p.r(C)p.r(U)p.r(U)p.r(C)p.r(T)p.r(T)}$$$RNA1{StrandType:ss}|RNA2{StrandType:as}$”, the target mRNA knockdown is 43%.
